Results on two compounds are retold here after patent US20170071976A1, “PHARMACEUTICAL SOLUTION HAVING ANTI-TUMOR EFFECT-ENHANCING AND TOXICITY-REDUCING EFFECT, AND PHARMACEUTICAL COMPOSITION COMPRISING SAME” (priority 2014, published 2017).

Like-named read-outs stand apart in the source and are kept apart here. Marks after values point to notes of the source that are not given here.

Data set [1] has as its system human lung cancer A549 cells. The experiment in a line: Cell invasion assayed by Transwell. It counts as cell-based. Conditions: invaded A549 cells, control 178.3 ± 13.8. The method, then: Cell lines: human colon cancer HCT-116 cells and human lung cancer A549 cells were provided by NANJING […] BIOTECH. CO., LTD. […] The cell suspension was centrifuged at 800 to 1,000 rpm for 5 min, and the supernatant was discarded; 1.4. A complete culture medium was added to the cell pellet which was well mixed by gentle pipetting, the cell suspension was transferred to a culture flask, and the cells were cultured by supplementing culture medium. 1. […] After incubation of cells with the test drugs for 24 hours, serum was removed, and the cells were incubated under starvation with an incomplete culture medium for 24 hours; 3. Matrigel was placed at 4° C. in advance to thaw overnight; 4. Thawed Matrigel was 1:1 diluted with the incomplete culture medium, 30 μl diluted Matrigel was added to the upper compartment of Transwell and incubated at 37° C. for 120 min to gel the Matrigel; 5. Cells from different groups were digested, counted, and then adjusted to a density of 1×10^5 cells/ml with the incomplete culture medium, 100 μl cell suspension was added to the upper compartment (small compartment) of Transwell, and 500 μl medium containing 20% FBS was added to the lower compartment of Transwell; 6. A 24-well cell culture plate was placed in an incubator at 37° C. and 5% CO2 to culture the cells for 24 hours; 7. […] The assay was repeated one more time.

Data set [2] relates to human lung cancer A549 cells. The experiment in a line: Cell cycle by PI single staining (flow cytometry). It is filed as cell-based. The following applies: GM 250 nM in NS, 72 hours. The method, then:
Effect of deuterium oxide on the cell cycle of human lung cancer A549 cells and human colon cancer HCT-116 cells Human lung cancer A549 cells and human colon cancer HCT-116 cells were provided by NANJING […] BIOTECH. CO., LTD., and cultured in an incubator at 37° C., 5% CO2 and saturated humidity. A KGA511 Cell cycle assay kit was provided by NANJING […] BIOTECH. CO., LTD. The flow cytometer was FACS Calibur provided by Becton-Dickinson, US. […] The cell suspension was centrifuged at 800 to 1,000 rpm for 5 min, and the supernatant was discarded; 1.4. A complete culture medium was added to the cell pellet which was well mixed by gentle pipetting, the cell suspension was transferred to a culture flask, and the cells were cultured by supplementing culture medium. […] When all the cells became round, an equal volume of culture medium containing serum was added to cease the digestion; 2.4. The cells were blown by pipetting to suspend, then drawn into a 15 ml centrifugal tube, and centrifuged at 1000 rpm for 5 min; 2.5. […] 1. Cells growing in the exponential phase were digested and inoculated to a 6-well plate; on the next day, after the cells attached to the wall, cell culture media containing corresponding test drugs were added according to different groups, and a negative control group was also set; 2. […] The cells were washed with PBS once (centrifuged at 2,000 rpm for 5 min), and 5×10^5 cells were collected; 4. […] In a detection apparatus, red fluorescence with an excitation wavelength of 488 nm was recorded.
(Flow cytometry measures light scatter and fluorescence of single cells or particles in a stream.)

The test system of data set [3] is xenograft tumors from human breast cancer MCF-7 cells. The experiment in a line: MCF-7 xenograft in nude mice, intravenous deuterium oxide in combination with gemcitabine. It counts as in vivo, BALB/c nude mice. The following applies: for Body weight (g) End, given as change / Body weight (g) Initial / Bone marrow DNA content (OD): mouse, in vivo; for Inhibition (%): tumor weight. The method, then:
Ltd. Cell lines: human breast cancer MCF-7 cells were provided by NANJING […] BIOTECH. CO., LTD. […] Bone marrow nucleated cells were isolated by a routine method, DNA was extracted from the cells, the OD value was measured in a UV-260 spectrometer as a representative of the DNA content, and inhibition of DNA synthesis by the test samples was observed. The test used 7 groups in total, with 8 animals per group. […] Statistics: the same as Example 21.

The subject of data set [4] is human pancreatic cancer PANC-1 cells inoculated into the peritoneal cavity. The experiment in a line: Survival of nude mice bearing PANC-1 cells, 42° C. intraperitoneal retention lavage with HP-β-CD or sodium chloride deuterium oxide solution and gemcitabine. It is filed as in vivo. Conditions: 42° C. NS 10 ml/kg + gemcitabine 20 mg/kg, i.p. lavage x 5.
Procedure: Effect of 42° C. hyperthermicintraperitoneal retention lavage with hydroxypropyl-β-cyclodextrin (HP-β-CD) deuterium oxide solution in combination with gemcitabine (GEM) on the survival of nude mice bearing human pancreatic cancer PANC-1 cell.
Animal: 4 to 5 week-aged male nude mice, provided by Shanghai SIPPR-BK Laboratory Animal Co. Ltd.
Cell lines: human pancreatic cancer PANC-1 cell line was provided by NANJING KEYGEN BIOTECH.
Modeling: 0.2 ml suspension of pancreatic cancer PANC-1 cells containing 1×10^7 cells/ml (2×10^6 cells in total) was inoculated into the peritoneal cavity of the nude mice.
Grouping and dosing: the mouse model was established 7 to 8 days after inoculation into the nude mice, and the mice were randomized with 18 animals/group.
Gemcitabine was separately dissolved in the HP-β-CD deuterium oxide solution at 42° C., and in the sodium chloride deuterium oxide solution at 42° C., for intraperitoneal lavage of tumor-bearing mice.
Blank control group (42° C. sodium chloride physiological solution, 10 ml/kg); 2). Normal chemo group (42° C. sodium chloride physiological solution, 10 ml/kg+gemcitabine 20 mg/kg); 3). Low-dose sodium chloride deuterium oxide solution+gemcitabine group (42° C. sodium chloride deuterium oxide solution, 5 ml/kg+gemcitabine 20 mg/kg); 4). […]
The test system of data set [5] is xenograft tumors from human lung cancer A549 cells. Conditions: mouse, in vivo.
Procedure: (§1) Animal: 6 to 7 week-aged female BALB/c nude mice, each weighing 18 to 20 g, provided by Shanghai SLAC Laboratory Animal Co. Ltd.
(§2) Test drugs: gemcitabine (GEM) and the sodium chloride deuterium oxide solution prepared in Example 1.
(§3) Tumor cells were resuscitated and inoculated, and sterile sodium chloride physiological solution was added thereto to make a cell suspension which was subcutaneously inoculated into the upper right axillary fossa of animals. 5×10^6 tumor cells were inoculated into each animal.
(§4) The diameter of xenograft tumors in the nude mice was measured with a vernier caliper, and 10 days after inoculation, when tumors grew to 100 to 110 cm^3, the animals were randomized with 8 mice per group. Meanwhile drugs were administered by injection into tail vein, once every three days, for 21 successive days. By measuring the tumor diameter, the anti-tumor efficacy of test samples was dynamically observed. Meanwhile the body weight of animals was also recorded to observe the toxicity of the test samples. 21 days after administration, the nude mice were sacrificed, and tumors were harvested by surgery, weighed and photographed.
(§5) 6) Test group 2: gemcitabine (10 mg/kg) diluted in the sodium chloride deuterium oxide solution (10 ml/kg). 7) Test group 3: gemcitabine (10 ml/kg) diluted in the sodium chloride deuterium oxide solution (20 ml/kg).
Data set [6] shares this test system. The experiment in a line: A549 xenograft in nude mice, intravenous deuterium oxide in combination with gemcitabine. The following applies: for Inhibition (%): tumor weight.
Procedure: as §1, §2, §3, §4, §5
Data set [7] has as its system superficial bladder cancer (SBC). The following applies: mitomycin dissolved in only a sodium chloride solution, intrabladder perfusion and lavage; cited from earlier work.
Setting [8] is: GEM(H) 20 mg/kg × 11, tail vein.
Setting [9] is: GEM(L) 10 mg/kg × 11, tail vein, 10 mg/kg.
Where [10] appears, read: GEM(L) 10 mg/kg × 11, tail vein, listed as gemcitabine, 10 mg/kg.
The mark [11] stands for this setting: GEM(H) 20 mg/kg × 11, tail vein, 20 mg/kg.
Where [12] appears, read: GEM(H) 20 mg/kg × 11, tail vein, listed as gemcitabine, 20 mg/kg.

Turning to `Nc1ccn([C@@H]2O[C@H](CO)[C@@H](O)C2(F)F)c(=O)n1` [Gemcitabine, gemcitabine], the Number of cells amounted to 160.0 ± 6.6 in data set [1] (GEM 1.95 nM); 112.7 ± 3.5 in data set [1] (GEM 3.9 nM); 59.0 ± 2.0 in data set [1] (GEM 7.8 nM); 51.7 ± 3.1 in data set [1] (GEM 15.6 nM); 37.3 ± 2.3 in data set [1] (GEM 31.2 nM); 22.3 ± 0.6 in data set [1] (GEM 62.5 nM). Also, the Number of cells is on record as 16.0 ± 1.0 in data set [1] (GEM 125 nM) and 9.7 ± 2.1 in data set [1] (GEM 250 nM). Also, the “G1 Phase” value in data set [2] is 73.73 ± 3.73%. For the same compound, the “G2 Phase” value in data set [2] worked out at 10.71 ± 2.39%. For the same compound, the “S Phase” value in data set [2] is given as 15.55 ± 5.51%. The tumor volume in data set [3] (21 days after administration, gemcitabine 10 mg/kg alone) is on record as 2.757±0.342 cm^3. Also, the “Tumor weight” value in data set [3] (setting [8]) worked out at 1.57 ± 0.21 g; in data set [3] (GEM(L) 10 mg/kg × 11, tail vein), 2.48 ± 0.41 g; in data set [6] (setting [11]), 1.04 ± 0.13 g; in data set [6] (setting [12]), 1.04 ± 0.13 g; in data set [6] (setting [9]), 2.23 ± 0.2 g; in data set [6] (setting [10]), 2.23 ± 0.2 g. Moreover, in data set [3] (gemcitabine 10 mg/kg alone, vs negative control), the “T/C (relative tumor growth ratio)” value stood at 60.39%. In addition, the “Body weight (g) End, given as change” value in data set [3] (10 mg/kg) is reported as “+2.9 g”; in data set [3] (20 mg/kg), “+0.9 g”; in data set [5] (10 mg/kg) it was “+0.4 g”; in data set [5] (20 mg/kg) it was “+0.5 g”. In addition, the “Body weight (g) Initial” value in data set [3] (10 mg/kg) is given as 18.0 g; in data set [3] (20 mg/kg) it was 18.1 g; in data set [5] (10 mg/kg), 18.0 g; in data set [5] (20 mg/kg), 18.4 g. The entries for the “Bone marrow DNA content (OD)” value in data set [3] (10 mg/kg) and in data set [3] (20 mg/kg) were 0.908 ± 0.2543 OD and 0.823 ± 0.1416 OD, respectively. The “Inhibition (%)” value in data set [3] (setting [8]) is 61.42%*; in data set [3] (setting [9]) it was 39.06%; in data set [3] (setting [10]), 39.18%; in data set [6] (setting [11]), 64.54* %; in data set [6] (setting [12]) it was 64.54%; in data set [6] (setting [9]), 23.64%. In data set [6] (setting [10]), the “Inhibition (%)” value was 23.6%. In addition, in data set [4], the “T/C(%)” value was determined as 150.8%. For the same compound, the “MST” value in data set [4] (control 11.8 ± 2.2) is reported as 17.8 ± 1.8 days.
Turning to `CO[C@@]12[C@H](COC(N)=O)C3=C(C(=O)C(C)=C(N)C3=O)N1C[C@@H]1N[C@@H]12` [mitomycin], the tumor recurrence rate in data set [7] is 78%.
